Source: patent publication US9555071B2, “Methods and compositions for the treatment of axonal and neuronal degeneration” (priority 2012, dated 2017)

Assays:
[1] = system: Trembler J mice; assay: Trembler J mice, model of Charcot-Marie-Tooth type 1; format: in vivo; conditions: intravenous or intraperitoneal daily injection
Excerpt: (§1) Similar findings were also seen in other murine models such as Trembler J mice, a murine model of Charcot-Marie-Tooth type 1, MOG-EAE mice, model of multiple sclerosis with significant axonal loss, and Streptozotocin-induced diabetic mouse model. […] Application of the RGD peptide allowed the diseased mice to have a normal or near normal phenotype similar to untreated wild-type animals.
as §1, with “including (1)” for “such as”, “1, (2)” for “1,”, “and (3)” for “and”, “The” for “Application of the”

[2] = system: acrylamide intoxicated MAG−/− mice; assay: Acrylamide-induced axonal degeneration in MAG−/− mice; format: in vivo; conditions: for severe gait instability / axonal swelling, beading and segmentation of Aβ fibers in the skin / neuromuscular junction morphology: daily intraperitoneal injection; for severe gait instability: acrylamide for 10 days; for axonal swelling, beading and segmentation of Aβ fibers in the skin / neuromuscular junction morphology: acrylamide, FIG. 2E; for change in amplitudes of CMAP: electrophysiological testing, FIG. 2D
Excerpt: Furthermore, the RGD peptides can also prevent axonal and/or neuronal degeneration in vivo. See Example 3. Administration of acrylamide, a well characterized toxin, causes axonal “dying back” or degeneration without lymphocytic inflammatory response (Schaumburg et al., 1974, Ko et al., 2000; Ewaleifoh et al, 2012) in wild-type and MAG knockout mice. […] The acrylamide treated MAG−/− mice developed more rapid and severe motor impairment. Most mice fell off the rod even during pretraining and had profound decline in the retention time on the Rotarod (FIG. 2B). There was a decrease in amplitudes of CMAP (FIG. 2.D). […] The neuromuscular junction morphology was normal. On gross observation, there was only mild gait unsteadiness. […] Thus, the RGD peptide was able to prevent significant axonal degeneration that is typically seen in MAG−/− mice treated with acrylamide.
To test that RGD peptides may prevent axonal degeneration in a murine model, acrylamide, a well characterized toxin causing axonal “dying back” or degeneration without lymphocytic inflammatory response (Schaumburg et al., 1974, Ko et al., 2000, Ewaleifoh et at, 2012), was administered to wild-type and MAG−/− mice. When MAG knockout mice at 6 weeks of age were exposed to acrylamide for 10 days, there was markedly impaired gait with marked sensory ataxia and spreading of the toes of the hind limbs. The acrylamide treated MAG−/− mice developed more rapid and severe motor impairment. Most mice fell off the rod even during pretraining and had profound decline in the retention time on the Rotarod (FIG. 2B). There was a 68% decrease in amplitudes of CMAP (FIG. 2.D).
The neuromuscular junction morphology was normal (FIG. 2E). On gross observation, there was only mild gait unsteadiness.

[3] = system: MOG-EAE mice; assay: MOG-EAE mice, model of multiple sclerosis; format: in vivo; conditions: intravenous or intraperitoneal daily injection
Excerpt: as §1
as §1, with “including (1)” for “such as”, “1, (2)” for “1,”, “and (3)” for “and”, “The” for “Application of the”

[4] = Bioavailability and bio-distribution by LC-QTOF mass spectrometer; format: in vivo, C57B1 mice; conditions: intraperitoneal 1 μg/g
Experimental: In contrast, there was no decrease with the co-administration of the peptide (n=10 mice).
To test the bioavailability and bio-distribution of the RGD peptides in vivo, C57B1 mice were given intraperitoneal injection of 1 μg/g weight of cylco-GRGDSP (SEQ ID NO:3) in normal saline (1 mg/ml). The mice were sacrificed at 30, 60, 120, and 240 minutes. Blood, brain, skin, muscle, and tibial and sciatic nerves were collected. The presence of the peptide was detected using LC-QTOF mass spectrometer.

[5] = system: dorsal root ganglion (DRG) explants; assay: Axonal protection of DRG explants exposed to vincristine; format: cell-based
Experimental: Panels A to D are representative images of dorsal root ganglion (DRG) explants after exposure to 50 nM vincristine at 0 and 60 hours. Explants in panels A and B were treated with 50 nM vincristine and 0.5 μg/ml peptide while those in panels C and D were treated with vincristine alone.
DRG explants were exposed to 50 nM vincristine. Explants in panels A and B were treated with 50 nM vincristine and 0.5 μg/ml RGD peptide while those in panels C and D were treated with vincristine alone. […] The cyclo-GRGDSP (SEQ ID NO:3) peptide potently promoted axonal survival in cell culture with EC50=0.5 μM (FIG. 1.E).

[6] = system: Streptozotocin-induced diabetic mouse model; assay: Streptozotocin-induced diabetic mouse model; format: in vivo; conditions: intravenous or intraperitoneal daily injection
Excerpt: as §1
as §1, with “including (1)” for “such as”, “1, (2)” for “1,”, “and (3)” for “and”, “The” for “Application of the”

[7] = system: postnatal (P4-5) dorsal root ganglion (DRG) and cerebrocortical neurons; assay: Prevention of axonal/neuronal death in cultured neurons; format: cell-based; conditions: in vitro; peptides in linear as well as cyclo forms; FIG. 1
Experimental: Several small RGD peptides containing RGD sequence were generated and their axonal protective effect was tested. The RGD peptides included RGDYK (SEQ ID NO:1), GRGDS (SEQ ID NO:2), FRGDLG (SEQ ID NO:4), FRGDSP (SEQ ID NO:9), IRGDSP (SEQ ID NO:15), RRGDQT (SEQ ID NO:5), KRGDNF (SEQ ID NO:6), PRGDLT (SEQ ID NO:7) in linear as well as cyclo forms.

[8] = system: β1-integrin receptor; assay: Blocking of the peptide's axonal protection by integrin antagonists; format: cell-based
Excerpt: The RGD motif is known to bind to the integrin receptor. The addition of the peptides of the present invention to primary DRG neuronal cultures induced rapid phosphorylation of neurofilament (NFH), change in NAD synthase nicotinamide mononucleotide adenylyltransferase (NMNAT) expression, and focal adhesion kinase (FAK), an integrin-linked kinase, at the tyrosine 397 residue (Y397), which are indicative of integrin binding to a ligand. Co-administration of echistatin or specific function-blocking antibody to β1-integrin abolished the axonal/neuronal protective ability of the peptide. See Example 1.
The protective effect of the […] peptides was dependent upon their ability to bind to β1-integrin receptor. […] Co-administration of specific function-blocking antibody to β1-integrin abolished the axonal protective ability of the GRGDSP (SEQ ID NO:3) peptide.

[9] = system: axons; conditions: insults such as vincristine, acrylamide, inflammatory mediators; Nguyen et al., 2009; cited from earlier work
[10] = sampled 30, 60, 120, 240 minutes

With N=C(N)NCCC[C@@H]1NC(=O)CNC(=O)[C@@H]2CCCN2C(=O)[C@H](CO)NC(=O)[C@H](CC(=O)O)NC(=O)CNC1=O [cyclo-GRGDSP] as the molecule, how does the “axonal/neuronal degeneration and behavioral deficits” value [1] read?
Its value is “almost completely abolished”.

And the severe gait instability [2]?
Its severe gait instability is “largely prevented”.

What about the “axonal swelling, beading and segmentation of Aβ fibers in the skin” value (“axonal swelling” below) [2] of the same molecule?
The value was “largely prevented”.

And the neuromuscular junction morphology [2]?
The neuromuscular junction morphology was “normal”.

What about the “change in amplitudes of CMAP” value [2] of the same molecule?
Its value is “little to no change”.

What about the “axonal/neuronal degeneration and behavioral deficits” value [3] of the same molecule?
Its value is “almost completely abolished”.

And the “peptide detected in sciatic nerves” value ([4]; all time points up to 4 hours, FIG. 2A)?
Its value is “detected in high concentration”.

What about the “peptide detected in plasma” value [4, 10] of the same molecule?
The value was “detected”.

And the “peptide levels in brain” value [4, 10]?
The value was “only evident in the first hour”.

What about the EC50 ([5]; DRG explants exposed to 50 nM vincristine, FIG. 1E, read-out: EC50, axonal survival in cell culture) of the same molecule?
Its EC50 is 0.5 µM.

What about the “neuronal death (TUNEL-positive cells)” value ([5]; associated with axonal protection, FIG. 1F) of the same molecule?
Its value is “marked decreased in neuronal death”.

And the “axonal/neuronal degeneration and behavioral deficits” value [6]?
Its value is “almost completely abolished”.

For “FRGDLG: RGD peptide, amino acid sequence FRGDLG (Synthetic Peptide, Linear or Cyclo)”, which “stabilize the axon and prevent axonal/neuronal death” value [7] is on record?
Its value is “sufficient to stabilize the axon and to prevent axonal/neuronal death”.

Which “stabilize the axon and prevent axonal/neuronal death” value [7] does the source give for “FRGDSP: RGD peptide, amino acid sequence FRGDSP (Synthetic Peptide, Linear or Cyclo)” here?
Its value is “sufficient to stabilize the axon and to prevent axonal/neuronal death”.

Which “stabilize the axon and prevent axonal/neuronal death” value [7] does the source give for “GRGDS: RGD peptide, amino acid sequence GRGDS (Synthetic Peptide, Linear or Cyclo)” here?
The value was “sufficient to stabilize the axon and to prevent axonal/neuronal death”.

With “GRGDSP: RGD peptide, amino acid sequence GRGDSP” as the molecule, how does the “axonal protective ability of the peptide” value ([8]; co-administration of specific function-blocking antibody to β1-integrin) read?
Its value is “abolished”.

With “IRGDSP: RGD peptide, amino acid sequence IRGDSP (Synthetic Peptide, Linear or Cyclo)” as the molecule, how does the “stabilize the axon and prevent axonal/neuronal death” value [7] read?
Its value is “sufficient to stabilize the axon and to prevent axonal/neuronal death”.

Which “stabilize the axon and prevent axonal/neuronal death” value [7] does the source give for “KRGDNF: RGD peptide, amino acid sequence KRGDNF (Synthetic Peptide, Linear or Cyclo)” here?
Its value is “sufficient to stabilize the axon and to prevent axonal/neuronal death”.

For “PRGDLT: RGD peptide, amino acid sequence PRGDLT (Synthetic Peptide, Linear or Cyclo)”, which “stabilize the axon and prevent axonal/neuronal death” value [7] is on record?
The value was “sufficient to stabilize the axon and to prevent axonal/neuronal death”.

Which “stabilize the axon and prevent axonal/neuronal death” value [7] does the source give for “RGDYK: RGD peptide, amino acid sequence RGDYK (Synthetic Peptide, Linear or Cyclo)” here?
The value was “sufficient to stabilize the axon and to prevent axonal/neuronal death”.

Which “stabilize the axon and prevent axonal/neuronal death” value [7] does the source give for “RRGDQT: RGD peptide, amino acid sequence RRGDQT (Synthetic Peptide, Linear or Cyclo)” here?
The value was “sufficient to stabilize the axon and to prevent axonal/neuronal death”.

Which severe gait instability [2] does the source give for “cyclo-FRGDLP: cyclic RGD peptide of sequence FRGDLP (SEQ ID NO:8) (cyclic; Synthetic Peptide, Linear or Cyclo)” here?
Its severe gait instability is “largely prevented”.

And the “axonal swelling” value [2]?
Its value is “largely prevented”.

And the neuromuscular junction morphology [2]?
Its neuromuscular junction morphology is “normal”.

And the “change in amplitudes of CMAP” value [2]?
Its value is “little to no change”.

Which severe gait instability [2] does the source give for “cyclo-FRGDSP: cyclic RGD peptide of sequence FRGDSP (SEQ ID NO:9) (cyclic; Synthetic Peptide, Linear or Cyclo)” here?
The severe gait instability was “largely prevented”.

What about the “axonal swelling” value [2] of the same molecule?
Its value is “largely prevented”.

And the neuromuscular junction morphology [2]?
The neuromuscular junction morphology was “normal”.

What about the “change in amplitudes of CMAP” value [2] of the same molecule?
The value was “little to no change”.

Which “axonal/neuronal degeneration and behavioral deficits” value [1] does the source give for “cyclo-IRGDSP: cyclic RGD peptide of sequence IRGDSP (SEQ ID NO:15) (cyclic; Synthetic Peptide, Linear or Cyclo)” here?
Its value is “almost completely abolished”.

And the severe gait instability [2]?
Its severe gait instability is “largely prevented”.

What about the “axonal swelling” value [2] of the same molecule?
Its value is “largely prevented”.

And the neuromuscular junction morphology [2]?
Its neuromuscular junction morphology is “normal”.

And the “change in amplitudes of CMAP” value [2]?
Its value is “little to no change”.

And the “axonal/neuronal degeneration and behavioral deficits” value [3]?
The value was “almost completely abolished”.

What about the “axonal/neuronal degeneration and behavioral deficits” value [6] of the same molecule?
The value was “almost completely abolished”.

Which “effect of co-administered blocker on axonal/neuronal protective ability of the peptide” value ([8]; co-administration with RGD peptide) does the source give for echistatin [reference compound] here?
Its value is “abolished”.

B1: MAG: transmembrane glycoprotein containing five Ig-like domains; adhesion molecule of the immunoglobin superfamily (protein, UniProt P20916 20-626, looked up)
Myelin-associated glycoprotein: GHWGAWMPSSISAFEGTCVSIPCRFDFPDELRPAVVHGVWYFNSPYPKNYPPVVFKSRTQVVHESFQGRSRLLGDLGLRNCTLLLSNVSPELGGKYYFRGDLGGYNQYTFSEHSVLDIVNTPNIVVPPEVVAGTEVEVSCMVPDNCPELRPELSWLGHEGLGEPAVLGRLREDEGTWVQVSLLHFVPTREANGHRLGCQASFPNTTLQFEGYASMDVKYPPVIVEMNSSVEAIEGSHVSLLCGADSNPPPLLTWMRDGTVLREAVAESLLLELEEVTPAEDGVYACLAENAYGQDNRTVGLSVMYAPWKPTVNGTMVAVEGETVSILCSTQSNPDPILTIFKEKQILSTVIYESELQLELPAVSPEDDGEYWCVAENQYGQRATAFNLSVEFAPVLLLESHCAAARDTVQCLCVVKSNPEPSVAFELPSRNVTVNESEREFVYSERSGLVLTSILTLRGQAQAPPRVICTARNLYGAKSLELPFQGAHRLMWAKIGPVGAVVAFAILIAIVCYITQTRRKKNVTESPSFSAGDNPPVLFSSDFRISGAPEKYESERRLGSERRLLGLRGEPPELDLSYSHSDLGKRPTKDSYTLTEELAEYAEIRVK
With B1 as the molecule, how does the “axonal survival / prevention of axonal degeneration caused by vincristine” value [9] read?
Its value is “promotes axonal survival”.
